“And” between values parts separate entries of the source, which are not always exact repeats. Equal entries are not always repeated.
How the values were obtained:
Jurkat T cells = test: Jurkat T-cell proliferation, [3H]-thymidine incorporation; type: cell-based
Description: (§1) Library construction. 32,000 FDA drug approvals obtained by Freedom of Information Act requests were condensed to 3,400 unique drug formulations. Drugs were purchased from Sigma, Spectrum Chemicals, MP Biomedicals, The Johns Hopkins Hospital pharmacy, Biomol, and Tocris. 10 mM stock solutions were made using DMSO, water, or ethanol as solvents. Drugs were arrayed in 96-well plates and screened at a final concentration of 10 μM. Cells were incubated with drug for 36 h and proliferation was measured by pulsing with 1 μCi [^3H]-thymidine for 8 h followed by absorption onto glass filters and scintillation counting.
(§2) Statistical analysis. IC50 measurements were carried out in triplicate, and analyzed using four parameter logarithmic analysis. Values are presented +/− the standard error of the mean. P-values were calculated using the Student's T-test. IC50 measurements are carried out using standard assays, and include assays described in Gilbert H J, Lowe C R, Drabble W T. Biochem J. 1979, 183:481-94; and Xiang, B., Taylor, J. C., and Markham, G. D. J. Biol. Chem., 271, 1435 (1996); the contents of which are incorporated herein by reference.
MPA is an immunosuppressive drug widely used to prevent rejection of transplanted organs (Lipsky, J. J: (1996) Lancet 348, 1357-1359.). The mechanism of action in the immune system is well established—MPA inhibits de novo biosynthesis of purines in T and B lymphocytes (Allison, A. C. & Eugui, E. M. (2000) Immunopharmacology 47, 85-118.). […] Thus, a comparison of HUVEC to Jurkat T cells for sensitivity to MPA in the presence and absence of guanine was carried out. […] Addition of guanine at or above 20 μM rendered Jurkat T cells resistant to MPA. Similar to Jurkat T cells, inhibition of HUVEC proliferation is also reversed by guanine in a dose-dependent manner (FIG. 1B). Unlike Jurkat T cells, however, HUVECs are less sensitive to guanine, the cause of which remains unknown. Similar reversal of MPA inhibition is also seen in HUVEC and Jurkat T-cells with the addition of exogenous guanosine and deoxyguanosine (data not shown).

[1] = human renal transplant patients, chronic oral treatment; cited from earlier work
HUVEC = test: Cell cycle analysis of HUVEC; type: cell-based, human
Excerpt: It has been shown that MPA causes cell cycle arrest in activated T and B lymphocytes at G1 (Laliberte, J., Yee, A., Xiong, Y. & Mitchell, B. S. (1998) Blood 91, 2896-2904.). Therefore, the effect of MPA on endothelial cell cycle progression was examined.

[2] = tested on: VEGF and bFGF stimulated angiogenesis (new blood vessel formation); test: Matrigel plug angiogenesis assay in mice; type: in vivo, mouse; conditions: 60 mg/kg/day s.c., 10 days after plug implantation, vs vehicle, p<0.002
Description: In vivo angiogenesis. Female C57BL/6NCr 5-week old, 25-30 g mice were purchased from NCI and treated in accordance with Johns Hopkins ACUC procedures. In all animal experiments the MPA prodrug mycophenolate mofetil i.v. formulation (Roche) was used. Mice were pretreated with drug for three days and then implanted with 0.5 mL of Matrigel (BD Biosciences) containing 100 ng/mL VEGF and 150 ng/mL bFGF. Drug treatment was continued daily for 10 days, mice were sacrificed, and plugs were harvested, fixed in neutral buffered formalin, and processed for histology using MAS-trichrome staining. The entire Matrigel plug was photographed at 100× and erythrocyte-filled blood vessels were counted per field.
Matrigel plugs' containing VEGF and bFGF were subcutaneously implanted into mice. The control group was treated with saline vehicle and the MPA group was treated with 60 or 120 mg/kg/day of drug. […] To quantify these differences we counted erythrocyte-filled blood vessels per 100× field (FIG. 3E) (Fahmy, R. G., Dass, C. R., Sun, L. Q., Chesterman, C. N. & Khachigian, L. M. (2003) Nat. Med. 9, 1026-1032), and observed a 69% decrease in new blood vessel formation in mice treated with MPA in comparison with vehicle control (p<0.002). Thus, MPA is capable of inhibiting angiogenesis at a therapeutically achievable dose in vivo.

[3] = tested on: human umbilical vein endothelial cells (HUVEC); test: HUVEC proliferation, [3H]-thymidine incorporation; type: cell-based
Description: as §1, §2
A library of 1,850 FDA-approved drugs and 600 drugs that entered the clinic via approval in a foreign country or phase II clinical trials was created. […]

RENCA cells = test: Murine renal cell carcinoma (RENCA) tumor model; type: in vivo, mouse; conditions: mice
Description: Renal cell tumor model. Female BALB/C5-6 week old, 25-30 g mice were purchased from NCI. Logarithmically growing RENCA cells (5×10^5) in 50 μL 50% PBS, 50% Matrigel were injected into the renal subcapsule through an incision in the left flank (Drevs, J., Hofmann, I., Hugenschmidt, H., Wittig, C., Madjar, H., Muller, M., Wood, J., Martiny-Baron, G., Unger, C. & Marme, D. (2000) Cancer Res. 60, 4819-4824.). The mice were sacrificed 3.5 weeks after surgery and the primary tumors were dissected and fixed for immunohistochemistry. For CD31 analysis eight fields with the highest level of angiogenesis were selected per tumor for quantification using ImagePro Plus software (Media Cybernetics), and represented as mean percentage area occupied by CD31 positive blood vessels.
Angiogenesis has been implicated in tumor growth among a number of other diseases. Although MPA inhibits fast-growing tumor cell lines in culture and in mouse xenograph experiments (Tressler, R. J., Garvin, L. J. & Slate, D. L. (1994) Int. J. Cancer 57, 568-573, Carter, S. B., Franklin, T. J., Jones, D. F., Leonard, B. J., Mills, S. D., Turner, R. W. & Turner, W. B. (1969) Nature 223, 848-850), it is unclear whether MPA also affects tumor-associated angiogenesis. We determined the efficacy of MPA in inhibiting tumor-associated angiogenesis in a murine renal cell carcinoma (RENCA) model (Salup, R. R. & Wiltrout, R. H. (1986) Cancer Res. 46, 3358-3363). MPA inhibited the growth of the primary tumor in a dose-dependent fashion, causing a 34% and 27% decrease in volume and weight, respectively, at 60 mg/kg/day and a 64% decrease in both volume and weight at 120 mg/kg/day (p<0.001) (FIG. 4A). The decrease in tumor growth caused by MPA at 120 mg/kg/day was accompanied by a 48% decrease in the area of CD31 positive staining blood vessels per 200× field (p<0.001).

[4] = small cohorts of cancer patients (<35), diethanolamine salt; cited from earlier work

Row | Structure (SMILES) | IC50 (Jurkat T cells; Homo sapiens, Jurkat, [3H]-thymidine incorporation, +/- standard error of the mean) | MPA inhibition of Jurkat T-cell proliferation with exogenous guanine (Jurkat T cells; guanine 10 μM) | MPA inhibition of Jurkat T-cell proliferation with exogenous guanine (Jurkat T cells; guanine 20 μM and 50 μM) | half life [1] | peak plasma level [1] | cell cycle effect (HUVEC; 1 μM MPA) | population of cells in S phase (HUVEC; 1 μM MPA (control 12%)) | population of cells in G2/M phase (HUVEC; 1 μM MPA (control 17.8%)) | population of cells in G1 phase (HUVEC; 1 μM MPA (control 71%)) | cell cycle effect of MPA after addition of guanosine (HUVEC; 1 μM MPA + 50 μM guanosine) | decrease in new blood vessel formation (erythrocyte-filled blood vessels per 100× field) [2] | IC50 ([3]; Homo sapiens, HUVEC, [3H]-thymidine incorporation, +/- standard error of the mean) | MPA inhibition of HUVEC proliferation with exogenous guanine ([3]; guanine 10 μM and 20 μM) | decrease in primary tumor volume (RENCA cells; 60 mg/kg/day) | decrease in primary tumor weight (RENCA cells; 60 mg/kg/day) | decrease in primary tumor volume (RENCA cells; 120 mg/kg/day, p<0.001) | decrease in primary tumor weight (RENCA cells; 120 mg/kg/day, p<0.001) | decrease in area of CD31 positive staining blood vessels per 200× field (RENCA cells; 120 mg/kg/day, p<0.001, 120 mg/kg/day) | toxicity in patients [4]
1 | COc1c(C)c2c(c(O)c1C/C=C(\C)CCC(=O)O)C(=O)OC2 [MPA, mycophenolic acid] | 128 nM | unaffected | completely reversed | 18 h | 75 µM | G1/S cell cycle arrest | 6.5% | 12.4% | 81% | completely reversed | 69% | 99.2 nM | partially reversed | 34% | 27% | 64% | 64% | 49% and 48% | 
2 | COc1c(C)c2c(c(O)c1CC=C(C)CCC(=O)O)C(=O)OC2.OCCNCCO [diethanolamine salt of MPA] |  |  |  |  |  |  |  |  |  |  |  |  |  |  |  |  |  |  | considerable dose-limiting gastrointestinal toxicity

From patent publication US20100330148A1, “MEHODS AND COMPOSITIONS FOR INHIBITING IMPDH-1 ISOFORM 1” (The Johns Hopkins University, priority 2006, published 2010)
